Results: a melting point compilation (Tetko et al.; mined from patent text by program, amines drawn as free bases though some values may be those of a salt)

| SMILES | melting point [°C] |
| --- | --- |
| Cn1c2ccccc2c(=O)c2cscc21 | 188 to 190 |
| Cc1oc(COc2ccccc2/C=C/CO)nc1-c1ccccc1 | 128 to 129 |
| O=C(O)c1ccc(OCCCc2ccc(OCCCCOc3ccccc3)cc2)c(C(=O)N2CCC(C(=O)O)CC2)c1 | 142 to 143 |
| Cn1c(=O)c(-c2ccc(Cl)cc2Cl)cc2c3cc(-c4ccn[nH]4)ccc3[nH]c21 | 246 to 250 |
| Cc1nc[nH]c1CN1CCC(Nc2nc3ccccc3n2Cc2ccco2)CC1 | 242 |
| Cn1cc(C2=C(C3CCCCC3)C(=O)NC2=O)c2ccccc21 | 224 to 225 |
| CC12CCC3c4ccc(C(=O)O)cc4CCC3C1CCC2C(=O)CC1CCCCC1 (stereo not drawn) | 239 to 241 |
| O=c1cc(-c2ccccc2)oc2c(CN3CCN(CCO)CC3)c(O)c(O)c(O)c12 | 192 |
| Nc1nc2c(c(Nc3cccc(Cl)c3)n1)-c1ccccc1C2 | 224 to 225 |
| c1ccc(C2SC3(CCNCC3)c3ccccc32)cc1 (stereo not drawn) | 142 to 144 |
| CN1CC[C@@H](c2c(O)cc(O)c3c(=O)cc(-c4cccnc4Cl)oc23)[C@@H]1CO | 125 to 127 |
| O=C(O)C1C2CNCC21 (stereo not drawn) | 101 to 102 |
| CN(C)c1ncc(-c2cccc(Nc3ccc(-c4ccoc4)cc3[N+](=O)[O-])c2)cn1 | 181 to 182 |
| CN1C(=O)C(NC(=O)Nc2cccc(Br)c2)N=C(c2ccccc2)c2ccccc21 (stereo not drawn) | 194 to 196 |
| Cc1cc(SC#N)c(C)c(C)c1O | 100 |
| O=C(OCCCCCCCCCCCCBr)C1CC1 | 29 to 31 |
| N#Cc1cc(-c2cccnc2)nn1-c1ccc(NCC2Cc3ccccc3C2)cc1 | 156 to 158 |
| CC(C)(C)c1cc(C=Cc2n[nH]c(=O)o2)cc(C(C)(C)C)c1O | > 260 |
| Cc1nnc(CCl)n1-c1ccc(Cl)cc1C(=O)c1ccccc1 | 139 to 140 |
| N#CC(c1ccccc1)c1cc(Oc2cc(Cl)cc(Cl)c2)c2c(=O)c3ccccc3sc2c1 (stereo not drawn) | 145 to 155 |
| CCn1ncc2c3onc(-c4cccc(F)c4)c3cnc21 | 136 to 137 |
| CCOC(=O)C1[C@H]2O[C@@H]3COC(C)(C)O[C@H]3C(=NO)[C@@H]12 (stereo partly drawn) | 210 to 213 |
| O=C1OCC(CNC2CCCCC2)C1(c1ccccc1)c1ccccc1 (stereo not drawn) | 129 to 131 |
| Cn1ncc2c3cc(Cl)c(Cl)cc3n(C3OC(CO)C(O)C3O)c21 (stereo not drawn) | 135 to 138 |

| SMILES | melting point [°C] |
| --- | --- |
| Cc1cnc2[nH]cc(/C=C3\N=C(N4CCCCCC4)NC3=O)c2c1 | 324 to 326 |
| N#Cc1cc(NC(=O)C2CCc3ccccc3C2)ccc1N1CCC(O)CC1 (stereo not drawn) | 163 to 165 |
| CN1CCN(S(=O)(=O)c2ccc(O)cc2)CC1 | 225 to 227 |
| CC(C)(C)OC(=O)N1[C@@H](Cc2cccc(C3CCC3)c2)C(=O)O[C@H](c2ccccc2)[C@@H]1c1ccccc1 | 145 to 147 |
| CS(=O)(=O)NCCCn1c(-c2ccc(Br)cc2)csc1=Nc1ccccc1 | 128 to 134 |
| O=C(NCCCSc1ccncc1)c1ccco1 | 98 to 99 |
| CCC(=C(c1ccccc1)c1ccc(C2CC2C(=O)N(CC)CC)cc1)c1ccccc1 (stereo not drawn) | 42 to 44 |
| CC1(C)CC=C(Nc2ccccc2Cl)C(=O)C1 | 150 to 152 |
| Cn1cc(-c2cccc(N3CCc4c(sc5c4CCCC5)C3=O)c2CO)cc(Nc2ccc(C3CNC3)cn2)c1=O | 140 to 142 |
| CCCCCCc1ccc(C(=O)Cc2ccc(Br)cc2)cc1 | 108 |
| Cc1c(CN(C)C)cc(C(C)(C)CC(C)(C)C)c(O)c1C | 130 to 132 |
| CC(=O)N1CCN(C(=O)OC2C3=C(SCCS3)C(=O)N2c2ccc3ccc(Cl)nc3n2)CC1 (stereo not drawn) | 271 |
| CCCCCCCCS(=O)(=O)CCCC(=O)OO | 113 to 115 |
| CN1CCCCC(C2=CC(=O)CCC2)C1=O (stereo not drawn) | 109 to 110 |
| CCOC(=O)CCc1cc(O)nn1Cc1ccccc1 | 128 to 129 |
| CNC(=NS(C)(=O)=O)NCCSCc1csc(NC(N)=NCC(F)F)n1 | 85 to 89 |
| Sc1cccc(CN2CCCCC2)c1 | 121 to 123 |
| CCC(CC)c1ccc(Cl)c2nc3n(c12)CCN3c1ccc(Br)cc1Cl | 165 to 168 |
| Cc1ccc(C=Cc2ccccc2)cc1 | 117 |
| CCOC(=O)c1cnn2c1c(SC)nc1c(C)nn(C)c12 | 86 to 87 |
| c1ccc([C@H]2OC[C@@H](OCc3ccccn3)CO2)cc1 | 95 to 98 |
| CS(=O)c1n[nH]c(-c2cc(C(C)(C)C)c(O)c(C(C)(C)C)c2)n1 (stereo not drawn) | 135 to 145 |
| CN1C(=O)CN=C(c2ccccc2F)c2c1ccc(NC(=O)NC(C)(C)C)c2Cl | 206 to 208 |

Second part, the compound after the results:

| melting point [°C] | SMILES |
| --- | --- |
| 100 | CNC(=S)N1CCN=C1COc1cccc(C)c1C |
| 176 to 178 | NC(=O)/C=C/c1cc2c(Oc3ccc(Cl)cc3)cncc2s1 |
| 64 to 65 | CC(=O)N(Cc1cccnc1)c1ccc(Cl)cc1 |
| 133 to 134 | CCOC(=O)c1c(Oc2ccc(Cl)cc2[N+](=O)[O-])c2ccccc2n1C |
| 83 to 85 | CCCCCc1c(C(C)C)nc(C(C)C)c(CO)c1-c1ccc(Cl)cc1 |
| 186 to 187 | Cc1c(NC(=O)c2ccc(-c3ccc(F)cc3)cc2F)ccc2cc(CN3CCCCC3)cnc12 |
| 195 to 200 | COc1c(N2CC(C)(N)C3(CC3)C2)c(F)cc2c(=O)c(C(=O)O)cn([C@@H]3C[C@@H]3F)c12 (stereo partly drawn) |
| 144 to 145 | CCC#CCOc1cc2c(cc1/C=C/c1ccc(C(=O)O)cc1)C(C)(C)CCC2(C)C |
| 255 to 257 | O=C(NCc1ccc(Cl)cc1)c1cnc2ccc(-c3ccccc3)cc2c1O |
| 270 to 272 | CN(Cc1ccc(NC(=O)C2=Cc3cc(-c4ccc(C(F)(F)F)cc4)ccc3S(=O)(=O)CC2)cc1)C1CCOCC1 |
| 207 to 209 | CCOC(=O)c1cc2c3n(ccc-2n1)CC(C(C)C)=N3 |
| 109 to 110 | O[C@@H](CNCCOc1ccc2oc(-c3ccon3)cc2c1)COc1ccccc1F |
| 51 to 61 | CCCc1ccc(NC(=O)c2cccnc2NCc2ccc(OC)nc2)cc1C(F)(F)F |
| 194 to 196 | O=C(O)Cc1cn(C(=O)c2cccc(C(F)(F)F)c2)c2cc(Cl)ccc12 |
| 152 to 155 | COc1cc(/C=C/C(=O)CC(=O)/C=C/c2cccc(O)c2OC)ccc1O |
| 121 to 123 | CC(C(=O)O)c1ccc(N(C)c2nccs2)cc1 (stereo not drawn) |
| 90 to 92 | CCOC(=O)Nn1cccc1C(=O)c1ccccc1Cl |
| 208 to 210 | COC(=O)c1sc2ccc([N+](=O)[O-])cc2c1N |
| 196 to 197 | O=C(CC(=O)c1cc(O)ccc1O)c1ccc(OCc2ccccc2)c(OCc2ccccc2)c1 |
| 162 | Cc1ccc(OC(=O)C=Cc2ccccc2)c(C(=O)O)c1 |
| 229 to 231 | Cc1cc(C(F)(C(F)(F)F)C(F)(F)F)ccc1NC1OC(=O)c2cccc(Cl)c21 (stereo not drawn) |
| 101 to 102 | CCOC(=O)[C@H](C)NCC(=O)Nc1c2c(nc3ccccc13)CCCC2 |
| 178 | O=c1nc(-c2ccnc(Cl)c2)sc2ccccc12 |
| 90 to 95 | COc1ccc(C2CCC(OC(C)=O)CC2NC(=O)c2ccc(OCC3CC3)c(OCC3CC3)c2)cc1OC (stereo not drawn) |
| 273 to 278 | O=C(C=CC(F)(F)F)Nc1ccc2ncnc(Nc3cccc(Br)c3)c2c1 |
| 179 to 180 | NC(=O)c1cc(N(Cc2c(F)c(F)c(C(F)(F)F)c(F)c2F)C(=O)C(F)(F)F)ccc1OC(=O)C(F)(F)F |

| melting point [°C] | SMILES |
| --- | --- |
| 161 to 162 | CC(C)(C)OCOc1cc(NC(=O)NC(=O)c2ccc(C#N)cc2)ccc1OCC(=O)OC(C)(C)C |
| 203 to 205 | CCOc1cc2c(cc1OC)C(c1ccc(C(=O)O)cc1)=N[C@@H]1CCOC[C@H]21 |
| 179 | CC(C)(C)OC(=O)N1CCC2(Cc3ccc(C#N)cc3)C(=O)N(c3cc(Cl)nc(Cl)c3)C(=O)N12 (stereo not drawn) |
| 135 to 137 | CC(C)c1ccc2c(c1)c(SCc1ccccc1)c(CC(C)(C)C(=O)O)n2Cc1ccc(Cl)cc1 |
| 203 to 204 | CCCOc1ccccc1-c1nc(N)c(NC(=O)C(F)(F)F)c(=O)[nH]1 |
| 163 to 164 | CCC(CC)c1nn(-c2ncc(C(F)(F)F)cn2)cc1CCCOc1c(CC(=O)O)cccc1OC |
| 249 to 250 | CC(C)(C)c1ccc(C(=O)Nc2cn3cc(CO)ccc3n2)cc1 |
| 77 to 83 | COC(=O)/C(=C/c1cccc(C=O)c1)NC(=O)OCc1ccccc1 |
| 60 to 61 | CC(C)(C)c1ccc(CNC(=O)NCc2ccc(NS(C)(=O)=O)c(Cl)c2)cc1 |
| 189 to 191 | COc1ccc(Cl)cc1N1C(=O)CON(C)C1=S |
| 120 to 123 | COC(=O)c1ccc(OC)c2c(C(F)(F)F)c(OC)ccc12 |
| 65 to 67 | COC(=O)/C=C/c1cccc(OCCCCCOC(C)=O)c1 |
| 128 to 130 | COC1=C(OC)C(=O)C(CCC(=O)NCC(=O)O)=C(C)C1=O |
| 230 | CCOC(=O)N(N=c1[nH]c(SC)nc2ccc(C)cc12)c1ccccc1 |
| 145 to 146 | O=C1c2ccccc2C(=O)N1Cc1ncc(C(F)(F)F)cc1Cl |
| 130 to 131 | CCOC(=O)CC(=O)c1cc(F)c(N=[N+]=[N-])nc1Nc1ccc(F)cc1F |
| 112 to 113 | COc1ccc(C(=O)Nc2ccc(C(C)(C)CNC(=O)c3nn(C)cc3Br)cc2)cc1OC |
| 134 to 135 | CON=C(c1nnco1)c1ccccc1COc1cc(C)ccc1C |
| 157 to 159 | NC(=O)Nc1c(C(O)(C(F)(F)F)C(F)(F)F)ccc2c1CCCC2 |
| 138 | CCSC(=O)n1c(=NC(=O)N(C)C)sc2ccccc21 |
| 117 to 119 | CCN(CC)CC(=O)N1CCn2c(c(-c3ccccc3)c3cc(Cl)ccc32)C1 |
| 55 to 56 | CCOC(=O)C(C)Oc1ccc([N+](=O)[O-])cc1 (stereo not drawn) |
| 215 | CCOC(=O)C1=CC(C(=O)c2cc(Br)ccc2O)=CN2CCc3c([nH]c4ccccc34)C12C(=O)OCC (stereo not drawn) |
| 105 to 106 | O=C1Cc2cccc(Oc3cccc(Cl)c3)c2O1 |
| 139 to 140 | Cn1nc(Oc2ccc([N+](=O)[O-])c([N+](=O)[O-])c2)c(Cl)c1C(F)(F)F |
